We go through three molecules from article PMC4685510, “A Cell Biologist’s Field Guide to Aurora Kinase Inhibitors” (Frontiers in Oncology, 2015).

Holding throughout (experiment): biochemical
Common to all, as to assay type: biochemical

The target of assay [1] is 363 human kinases (including Aurora A/B/C) (Homo sapiens, UniProt P27361). The following applies: ERK1, [ATP] 100 µM; for remaining activity at 0.5 µM / remaining activity at 0.1 µM: read-out: % Enzyme Activity (relative to DMSO controls); for remaining activity at 0.1 µM: 100 nM.
363 human kinases (including Aurora A/B/C) (Homo sapiens, UniProt P27361), sequence (P27361 whole entry): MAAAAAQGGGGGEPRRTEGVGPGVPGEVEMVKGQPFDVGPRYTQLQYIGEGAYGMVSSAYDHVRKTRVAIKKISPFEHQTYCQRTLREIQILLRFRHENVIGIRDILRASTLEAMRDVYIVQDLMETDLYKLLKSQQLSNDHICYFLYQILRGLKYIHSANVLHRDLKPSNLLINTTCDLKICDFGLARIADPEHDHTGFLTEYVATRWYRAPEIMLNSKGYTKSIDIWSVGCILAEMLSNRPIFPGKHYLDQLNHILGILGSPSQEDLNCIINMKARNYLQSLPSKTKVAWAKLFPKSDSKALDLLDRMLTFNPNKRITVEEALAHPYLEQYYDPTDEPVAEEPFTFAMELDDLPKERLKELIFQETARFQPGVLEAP
Text: (§1) However, the Aurora A/B selectivity ratios derived from our in vitro and in vivo data can be compared to prioritize inhibitors.
The target in assay [2] is T1, 363 human kinases (including Aurora A/B/C) (Homo sapiens, UniProt Q9UL54).
T1 sequence (Q9UL54 1-1235): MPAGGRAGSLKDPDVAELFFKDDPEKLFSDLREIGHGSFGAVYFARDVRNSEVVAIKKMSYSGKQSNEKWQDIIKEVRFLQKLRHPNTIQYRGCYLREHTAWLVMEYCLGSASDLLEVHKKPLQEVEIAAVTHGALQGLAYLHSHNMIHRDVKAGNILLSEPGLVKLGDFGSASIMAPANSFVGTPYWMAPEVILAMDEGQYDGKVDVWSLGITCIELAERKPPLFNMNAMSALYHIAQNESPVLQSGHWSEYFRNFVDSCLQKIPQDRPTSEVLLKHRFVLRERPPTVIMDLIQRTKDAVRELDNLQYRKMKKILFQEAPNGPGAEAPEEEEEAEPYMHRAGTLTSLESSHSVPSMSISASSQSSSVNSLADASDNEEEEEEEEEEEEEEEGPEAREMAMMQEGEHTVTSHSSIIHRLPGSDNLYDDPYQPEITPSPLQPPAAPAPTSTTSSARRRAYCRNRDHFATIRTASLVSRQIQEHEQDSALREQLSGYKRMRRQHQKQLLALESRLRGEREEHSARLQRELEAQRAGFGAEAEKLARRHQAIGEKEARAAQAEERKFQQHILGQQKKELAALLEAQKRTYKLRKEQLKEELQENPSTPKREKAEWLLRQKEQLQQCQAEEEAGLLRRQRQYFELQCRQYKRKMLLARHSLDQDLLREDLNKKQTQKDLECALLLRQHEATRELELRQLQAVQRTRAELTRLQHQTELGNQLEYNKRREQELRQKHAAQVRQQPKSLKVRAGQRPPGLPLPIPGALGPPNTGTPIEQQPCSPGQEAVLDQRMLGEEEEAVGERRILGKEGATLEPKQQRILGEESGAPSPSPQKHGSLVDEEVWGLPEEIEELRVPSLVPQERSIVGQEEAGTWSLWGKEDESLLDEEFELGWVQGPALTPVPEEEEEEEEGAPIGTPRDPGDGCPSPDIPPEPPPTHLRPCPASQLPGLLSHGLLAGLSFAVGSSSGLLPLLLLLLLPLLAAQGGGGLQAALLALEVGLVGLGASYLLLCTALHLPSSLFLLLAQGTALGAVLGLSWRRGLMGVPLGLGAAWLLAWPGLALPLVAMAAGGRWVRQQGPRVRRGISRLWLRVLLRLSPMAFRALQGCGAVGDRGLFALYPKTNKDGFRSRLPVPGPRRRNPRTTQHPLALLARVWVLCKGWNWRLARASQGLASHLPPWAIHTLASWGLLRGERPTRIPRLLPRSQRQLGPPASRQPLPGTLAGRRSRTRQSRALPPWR
To be noted: TAOK2/TAO1; for remaining activity at 0.5 µM / remaining activity at 0.1 µM: read-out: % Enzyme Activity (relative to DMSO controls); for remaining activity at 0.1 µM: 100 nM.
Text: as §1

The target in assay [3] is 363 human kinases (including Aurora A/B/C) (Homo sapiens, UniProt P54764). The following applies: EPHA4, [ATP] 30 µM; for remaining activity at 0.5 µM / remaining activity at 0.1 µM: read-out: % Enzyme Activity (relative to DMSO controls); for remaining activity at 0.1 µM: 100 nM.
363 human kinases (including Aurora A/B/C) (Homo sapiens, UniProt P54764), sequence (P54764 20-986): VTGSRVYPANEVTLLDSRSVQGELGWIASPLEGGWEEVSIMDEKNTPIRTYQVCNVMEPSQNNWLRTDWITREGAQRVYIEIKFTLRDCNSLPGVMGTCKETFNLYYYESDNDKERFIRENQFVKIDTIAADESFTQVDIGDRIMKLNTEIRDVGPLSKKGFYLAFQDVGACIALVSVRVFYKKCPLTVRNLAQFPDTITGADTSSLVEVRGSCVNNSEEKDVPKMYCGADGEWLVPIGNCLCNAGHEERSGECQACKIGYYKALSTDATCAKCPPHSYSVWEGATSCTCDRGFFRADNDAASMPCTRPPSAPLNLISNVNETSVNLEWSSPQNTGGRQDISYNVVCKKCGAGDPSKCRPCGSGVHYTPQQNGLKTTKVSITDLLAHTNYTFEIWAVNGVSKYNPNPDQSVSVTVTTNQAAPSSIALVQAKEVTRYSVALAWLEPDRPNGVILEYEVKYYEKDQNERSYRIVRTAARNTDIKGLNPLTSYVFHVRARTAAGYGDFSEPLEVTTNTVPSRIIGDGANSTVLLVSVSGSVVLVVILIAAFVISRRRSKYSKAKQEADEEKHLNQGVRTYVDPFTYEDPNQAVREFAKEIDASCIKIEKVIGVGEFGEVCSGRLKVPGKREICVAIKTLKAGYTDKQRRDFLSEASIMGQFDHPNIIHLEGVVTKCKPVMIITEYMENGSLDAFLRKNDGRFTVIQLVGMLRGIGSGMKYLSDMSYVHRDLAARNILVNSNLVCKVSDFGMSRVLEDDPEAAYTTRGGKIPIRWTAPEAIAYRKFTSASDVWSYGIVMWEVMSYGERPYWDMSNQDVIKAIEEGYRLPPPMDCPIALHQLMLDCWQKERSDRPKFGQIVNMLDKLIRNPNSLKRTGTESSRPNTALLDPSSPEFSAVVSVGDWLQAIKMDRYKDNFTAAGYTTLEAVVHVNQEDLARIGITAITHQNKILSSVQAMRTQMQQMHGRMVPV
Text: as §1
Assay [4] has as its target 363 human kinases (including Aurora A/B/C) (Homo sapiens, UniProt Q00537). The following applies: CDK17/cyclin Y (PCTK2), [ATP] 50 µM; for remaining activity at 0.5 µM / remaining activity at 0.1 µM: read-out: % Enzyme Activity (relative to DMSO controls); for remaining activity at 0.1 µM: 100 nM.
Text: as §1
Assay [5] has as its target 363 human kinases (including Aurora A/B/C) (Homo sapiens, UniProt O75460). The following applies: ERN1/IRE1, [ATP] 30 µM; for remaining activity at 0.5 µM / remaining activity at 0.1 µM: read-out: % Enzyme Activity (relative to DMSO controls); for remaining activity at 0.1 µM: 100 nM.
Text: as §1
Assay [6] has as its target 363 human kinases (including Aurora A/B/C) (Homo sapiens, UniProt Q76MJ5). To be noted: ERN2/IRE2, [ATP] 100 µM; for remaining activity at 0.5 µM / remaining activity at 0.1 µM: read-out: % Enzyme Activity (relative to DMSO controls); for remaining activity at 0.1 µM: 100 nM.
Text: as §1
In assay [7] the target is T2, 363 human kinases (including Aurora A/B/C) (Homo sapiens, UniProt P15735).
T2 sequence (P15735 1-406): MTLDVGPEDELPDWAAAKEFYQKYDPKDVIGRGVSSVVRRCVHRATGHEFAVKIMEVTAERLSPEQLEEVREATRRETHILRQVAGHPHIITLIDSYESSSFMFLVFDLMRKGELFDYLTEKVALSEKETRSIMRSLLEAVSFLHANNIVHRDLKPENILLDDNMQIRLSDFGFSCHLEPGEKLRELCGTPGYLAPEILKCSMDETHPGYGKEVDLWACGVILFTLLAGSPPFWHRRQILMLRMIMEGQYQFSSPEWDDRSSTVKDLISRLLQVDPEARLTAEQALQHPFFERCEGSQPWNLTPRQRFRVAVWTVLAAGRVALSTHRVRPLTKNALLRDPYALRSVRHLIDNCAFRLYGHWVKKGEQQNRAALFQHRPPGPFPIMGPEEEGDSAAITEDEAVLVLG
The following applies: PHKg2; for remaining activity at 0.5 µM / remaining activity at 0.1 µM: read-out: % Enzyme Activity (relative to DMSO controls); for remaining activity at 0.1 µM: 100 nM.
Text: as §1

Assay [8] deals with T3, 363 human kinases (including Aurora A/B/C) (Homo sapiens, UniProt P36897).
T3 sequence (P36897 34-503): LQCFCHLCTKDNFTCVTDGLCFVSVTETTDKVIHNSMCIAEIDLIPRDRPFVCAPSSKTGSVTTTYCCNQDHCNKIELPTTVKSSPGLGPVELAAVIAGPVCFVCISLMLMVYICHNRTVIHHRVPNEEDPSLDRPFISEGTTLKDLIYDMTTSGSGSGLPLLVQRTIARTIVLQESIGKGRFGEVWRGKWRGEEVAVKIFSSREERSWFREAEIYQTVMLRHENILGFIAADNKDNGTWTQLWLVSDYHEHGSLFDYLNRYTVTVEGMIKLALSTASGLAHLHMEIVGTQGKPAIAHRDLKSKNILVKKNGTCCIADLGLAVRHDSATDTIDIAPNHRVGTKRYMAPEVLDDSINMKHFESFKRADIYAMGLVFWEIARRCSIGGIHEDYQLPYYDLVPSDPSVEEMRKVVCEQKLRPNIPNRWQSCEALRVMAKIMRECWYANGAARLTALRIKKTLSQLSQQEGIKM
To be noted: ALK5/TGFBR1, [ATP] 100 µM; for remaining activity at 0.5 µM / remaining activity at 0.1 µM: read-out: % Enzyme Activity (relative to DMSO controls); for remaining activity at 0.1 µM: 100 nM.
Text: as §1

363 human kinases (including Aurora A/B/C) (Homo sapiens, UniProt Q76MJ5), sequence (Q76MJ5 35-926): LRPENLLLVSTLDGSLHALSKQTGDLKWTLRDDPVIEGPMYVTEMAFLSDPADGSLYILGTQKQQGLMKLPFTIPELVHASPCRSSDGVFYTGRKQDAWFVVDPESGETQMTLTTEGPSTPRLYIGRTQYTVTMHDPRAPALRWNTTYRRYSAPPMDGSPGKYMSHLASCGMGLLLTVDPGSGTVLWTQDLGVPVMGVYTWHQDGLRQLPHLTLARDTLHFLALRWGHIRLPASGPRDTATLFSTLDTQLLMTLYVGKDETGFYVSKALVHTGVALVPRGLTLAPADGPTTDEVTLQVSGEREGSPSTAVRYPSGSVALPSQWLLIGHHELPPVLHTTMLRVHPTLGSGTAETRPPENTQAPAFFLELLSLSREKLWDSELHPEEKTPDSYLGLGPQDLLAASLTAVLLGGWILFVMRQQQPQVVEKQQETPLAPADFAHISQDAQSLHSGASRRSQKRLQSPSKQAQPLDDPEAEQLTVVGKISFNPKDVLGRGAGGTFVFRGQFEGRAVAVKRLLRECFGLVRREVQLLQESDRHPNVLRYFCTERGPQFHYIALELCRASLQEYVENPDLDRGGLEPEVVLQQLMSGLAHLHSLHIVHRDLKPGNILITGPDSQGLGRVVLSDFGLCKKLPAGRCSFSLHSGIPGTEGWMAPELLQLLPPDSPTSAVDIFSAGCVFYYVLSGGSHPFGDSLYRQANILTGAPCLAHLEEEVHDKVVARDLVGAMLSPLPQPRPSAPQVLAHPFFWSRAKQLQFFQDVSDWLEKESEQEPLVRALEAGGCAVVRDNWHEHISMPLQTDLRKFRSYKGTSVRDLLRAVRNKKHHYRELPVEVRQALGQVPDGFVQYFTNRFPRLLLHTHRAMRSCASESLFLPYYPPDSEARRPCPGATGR
363 human kinases (including Aurora A/B/C) (Homo sapiens, UniProt O75460), sequence (O75460 19-977): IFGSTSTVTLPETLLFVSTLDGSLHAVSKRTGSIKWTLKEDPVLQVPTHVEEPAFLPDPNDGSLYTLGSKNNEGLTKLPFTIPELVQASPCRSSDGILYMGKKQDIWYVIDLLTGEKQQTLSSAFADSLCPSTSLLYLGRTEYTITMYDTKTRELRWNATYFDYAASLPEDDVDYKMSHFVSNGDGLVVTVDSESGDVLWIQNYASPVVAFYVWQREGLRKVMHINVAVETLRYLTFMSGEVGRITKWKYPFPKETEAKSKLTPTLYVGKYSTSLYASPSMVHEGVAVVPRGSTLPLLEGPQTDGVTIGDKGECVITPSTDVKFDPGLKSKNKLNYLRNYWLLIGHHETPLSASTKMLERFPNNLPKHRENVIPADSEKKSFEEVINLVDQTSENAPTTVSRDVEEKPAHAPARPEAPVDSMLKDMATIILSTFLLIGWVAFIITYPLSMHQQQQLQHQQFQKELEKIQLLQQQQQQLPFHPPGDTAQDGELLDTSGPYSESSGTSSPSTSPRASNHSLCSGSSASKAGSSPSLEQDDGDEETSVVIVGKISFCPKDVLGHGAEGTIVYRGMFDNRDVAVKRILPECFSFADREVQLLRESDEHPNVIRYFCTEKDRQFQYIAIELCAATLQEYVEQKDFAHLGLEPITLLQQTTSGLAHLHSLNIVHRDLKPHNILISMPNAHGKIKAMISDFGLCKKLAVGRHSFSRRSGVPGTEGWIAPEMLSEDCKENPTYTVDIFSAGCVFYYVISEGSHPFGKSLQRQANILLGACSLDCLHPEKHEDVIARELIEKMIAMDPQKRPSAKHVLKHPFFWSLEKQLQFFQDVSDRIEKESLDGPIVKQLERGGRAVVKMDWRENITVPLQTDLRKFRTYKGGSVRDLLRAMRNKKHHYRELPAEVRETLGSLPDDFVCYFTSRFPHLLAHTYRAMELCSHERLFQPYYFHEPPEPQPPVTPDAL
363 human kinases (including Aurora A/B/C) (Homo sapiens, UniProt Q00537), sequence (Q00537 whole entry): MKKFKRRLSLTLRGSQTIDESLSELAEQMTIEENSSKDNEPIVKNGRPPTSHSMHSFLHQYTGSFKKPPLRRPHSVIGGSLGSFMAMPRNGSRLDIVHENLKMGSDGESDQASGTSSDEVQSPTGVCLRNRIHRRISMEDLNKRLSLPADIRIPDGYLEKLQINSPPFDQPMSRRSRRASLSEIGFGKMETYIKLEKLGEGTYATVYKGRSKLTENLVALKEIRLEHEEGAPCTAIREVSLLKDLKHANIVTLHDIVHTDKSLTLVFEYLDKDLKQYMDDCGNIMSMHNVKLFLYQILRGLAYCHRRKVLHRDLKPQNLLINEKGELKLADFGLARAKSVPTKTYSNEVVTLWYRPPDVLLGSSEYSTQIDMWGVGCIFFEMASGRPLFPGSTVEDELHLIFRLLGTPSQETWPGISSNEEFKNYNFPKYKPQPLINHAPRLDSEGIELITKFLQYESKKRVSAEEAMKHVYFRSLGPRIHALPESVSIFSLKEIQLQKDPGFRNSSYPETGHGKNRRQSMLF

Consider `O=C(c1cccc(Cl)c1F)N1CCN(Cc2cccc(Nc3nccs3)n2)CC1` [MK-8745], for which the “% Enzyme Activity (relative to DMSO controls)” value in assay [1] (500 nM) worked out at 100.59%; in assay [2] (500 nM) it was 97.14%; in assay [3] (500 nM), 87.10%; in assay [4] (500 nM) it was 86.82%; in assay [5] (500 nM), 88.65%; in assay [6] (500 nM) it was 93.54%. For the same molecule, the “% Enzyme Activity (relative to DMSO controls)” value amounted to 94.03% in assay [7] (500 nM) and 109.55% in assay [8] (500 nM). Further, the remaining activity at 0.5 µM worked out at 102% in assay [1] (500 nM); 97.6% in assay [2] (500 nM); 87.2% in assay [3] (500 nM); 87% in assay [4] (500 nM); 89.3% in assay [5] (500 nM); 94.5% in assay [6] (500 nM). Also, the remaining activity at 0.5 µM was found to be 94.7% in assay [7] (500 nM) and 110% in assay [8] (500 nM).

With `CCn1cc(-c2ccnc3[nH]c(-c4cccc(CN(C)C)c4)cc23)c(-c2ccc(NC(=O)N(C)C)cc2)n1` [GSK1070916], the remaining activity at 0.1 µM in assay [1] is 109%; in assay [2], 92.6%; in assay [3] it was 100%; in assay [4], 90.9%; in assay [5], 95.9%; in assay [6], 87.3%. Further, the remaining activity at 0.1 µM in assay [7] came out at 95.3%; in assay [8] it was 106%.

`O=C(O)[C@]1(Cc2cccc(Nc3nccs3)n2)CC[C@@H](Oc2cccc(Cl)c2F)CC1` [MK-5108]: the remaining activity at 0.1 µM amounted to 88.9% in assay [1]; 97.5% in assay [2]; 50.2% in assay [3]; 95.4% in assay [4]; 106% in assay [5]; 97% in assay [6]. Further, the remaining activity at 0.1 µM is 92.2% in assay [7] and 116% in assay [8]. In addition, the remaining activity at 0.5 µM in assay [1] (500 nM) amounted to 107%; in assay [2] (500 nM), 78.1%; in assay [3] (500 nM), 21.2%; in assay [4] (500 nM), 81.9%; in assay [5] (500 nM) it was 88.8%; in assay [6] (500 nM), 87.6%. In addition, the remaining activity at 0.5 µM was 93.6% in assay [7] (500 nM) and 130% in assay [8] (500 nM).
